For one assay, the target named is Cathepsin S (UniProt P25774). Put plainly: Cathepsin enzyme inhibition assay (fluorogenic peptide substrate Z-Val-Val-Arg-AMC), Cathepsin S. It is filed as biochemical, human and mouse. The following applies: enzyme 1 nM, substrate 20 μM, pH 6.5; read-out: CatS IC50. The gist of the method:
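Human or mouse cathepsin S (1 nM) was run in 100 mM potassium phosphate pH 6.5 with 5 mM EDTA, 0.001% Triton X-100 and 5 mM DTT. The rise in AMC fluorescence from cleavage was measured, and IC50 values were calculated by standard methods and expressed in μM.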

For another assay, the target named is Cat L (UniProt P07711). Put plainly: Cathepsin enzyme inhibition assay (fluorogenic peptide substrate Z-Val-Val-Arg-AMC), Cathepsin L. It is filed as biochemical, human and mouse. The following applies: for IC50: enzyme 1 nM, substrate 20 μM, pH 6.5, read-out: CatL IC50; for CatL, % @25 uM: @25 uM compound. In a few lines: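 Cathepsin L at 1 nM was mixed with compound, then started with 20 μM Z-Val-Val-Arg-AMC in pH 6.5 potassium phosphate with EDTA, Triton X-100 and 5 mM DTT. AMC fluorescence (ex 360/em 465 nm) was followed over 20 min. IC50 is given in μM.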

As a reminder, the IC50 is the concentration at which inhibition is half-maximal.

As for `N#CC1(NC(=O)[C@@H]2C[C@@H](S(=O)(=O)c3ccccc3Cl)CN2C(=O)C2(c3cc(F)c(Cl)cc3Cl)CC2)CC1` [Example 461, (2S,4R)-4-(2-Chloro-benzenesulfonyl)-1-[1-(2,4-dichloro-5-fluoro-phenyl)-cyclopropanecarbonyl]-pyrrolidine-2-carboxylic acid (1-cyano-cyclopropyl)-amide], the figures for the 50% inhibitory concentration (IC50) at Cathepsin S and on Cat L were 0.000985 µM and 0.0225 µM, respectively.
For `Cc1cc(N2C[C@H](S(C)(=O)=O)C[C@H]2C(=O)NC2(C#N)CC2)n(-c2ccc(C(F)(F)F)cc2)n1` [Example 462, (2S,4R)-4-Methanesulfonyl-1-[5-methyl-2-(4-trifluoromethyl-phenyl)-2H-pyrazol-3-yl]-pyrrolidine-2-carboxylic acid (1-cyano-cyclopropyl)-amide], in that order: 9.49 µM and above 25 µM.
With `Cc1cc(N2C[C@H](S(C)(=O)=O)C[C@H]2C(=O)NC2(C#N)CC2)n(-c2ccnc(Cl)c2)n1` [Example 463, (2S,4R)-1-[2-(2-Chloro-pyridin-4-yl)-5-methyl-2H-pyrazol-3-yl]-4-methanesulfonyl-pyrrolidine-2-carboxylic acid (1-cyano-cyclopropyl)-amide], the IC50 at Cathepsin S is 5.13 µM; at Cat L it was above 25 µM.
On the same counts, the results for `Cc1cc(N2C[C@H](S(=O)(=O)c3ccc(N4CC(F)(F)C4)cc3Cl)C[C@H]2C(=O)NC2(C#N)CC2)n(C2CCOCC2)n1` [Example 464, (2S,4R)-4-(2-chloro-4-(3,3-difluoroazetidin-1-yl)phenylsulfonyl)-N-(1-cyanocyclopropyl)-1-(3-methyl-1-(tetrahydro-2H-pyran-4-yl)-1H-pyrazol-5-yl)pyrrolidine-2-carboxamide] are 0.00115 µM and 3.02 µM.
For `Cc1cc(N2C[C@H](S(=O)(=O)c3ccccc3Cl)C[C@H]2C(=O)NC2(C#N)CC2)n(C2CCSCC2)n1` [Example 465, (2S,4R)-4-(2-chlorophenylsulfonyl)-N-(1-cyanocyclopropyl)-1-(3-methyl-1-(tetrahydro-2H-thiopyran-4-yl)-1H-pyrazol-5-yl)pyrrolidine-2-carboxamide], in that order: 0.00305 µM and 2.74 µM.
With `Cc1cc(N2C[C@H](S(C)(=O)=O)C[C@H]2C(=O)NC2(C#N)CC2)n(CC(F)(F)F)n1` [Example 466, (2S,4R)-4-Methanesulfonyl-1-[5-methyl-2-(2,2,2-trifluoro-ethyl)-2H-pyrazol-3-yl]-pyrrolidine-2-carboxylic acid (1-cyano-cyclopropyl)-amide], at Cathepsin S, the IC50 is 8.6 µM. Further, the “CatL, % @25 uM” value at Cat L is 95% @25 uM.
On the same counts, the results for `Cc1cc(N2C[C@H](S(=O)(=O)CC3CC3)C[C@H]2C(=O)NC2(C#N)CC2)n(CC(F)(F)F)n1` [Example 467, (2S,4R)-4-Cyclopropylmethanesulfonyl-1-[5-methyl-2-(2,2,2-trifluoro-ethyl)-2H-pyrazol-3-yl]-pyrrolidine-2-carboxylic acid (1-cyano-cyclopropyl)-amide] are 2.08 µM and 95% @25 uM.
On the same counts, the results for `Cc1cc(N2C[C@H](S(=O)(=O)CC3CC3)C[C@H]2C(=O)NC2(C#N)CC2)n(-c2ccc(C(F)(F)F)cc2)n1` [Example 469, (2S,4R)-4-Cyclopropylmethanesulfonyl-1-[5-methyl-2-(4-trifluoromethyl-phenyl)-2H-pyrazol-3-yl]-pyrrolidine-2-carboxylic acid (1-cyano-cyclopropyl)-amide] are 0.84 µM and 97% @25 uM.
On the same counts, the results for `Cc1cc(N2C[C@H](S(=O)(=O)CC3CC3)C[C@H]2C(=O)NC2(C#N)CC2)n(CCc2ccccc2)n1` [Example 470, (2S,4R)-4-Cyclopropylmethanesulfonyl-1-(5-methyl-2-phenethyl-2H-pyrazol-3-yl)-pyrrolidine-2-carboxylic acid (1-cyano-cyclopropyl)-amide] are 2.79 µM and 94% @25 uM.

For the origin of these results see patent US8163793B2, “Proline derivatives” (Hoffman-La Roche Inc., priority 2009, dated 2012).
